The text below walks through data of US20250195624A1, “USE OF SUPEROXIDE DISMUTASE FOR THE TREATMENT AND/OR PREVENTION OF ALLERGIC ASTHMA” (ISOCELL S.A.S., priority 2022, published 2025).

The structures appear in SMILES notation.

Format in all cases: in vivo, Balb/cj mice
Test [1] relates to house dust mite (HDM) allergy induced mice. The test can be described thus: Respiratory function by flexiVent in response to methacholine, HDM allergy induced mice. To be noted: asthmatic mice, increasing doses of methacholine. The method, then: (§1) An allergic asthma murine model involving exposure to house dust mites was used. This model comprises a preliminary percutaneous sensitisation challenge phase of Balb/cj mice with a whole house dust mite extract (days 0, 7, 14, and 21), followed by two intranasal stimulations (days 27 and 34) which induced the symptoms of allergy-induced asthma in the test subjects. The efficacy of the Glisodin formulations was evaluated by daily administration to the mice via force feeding of 5 mg of the Glisodin formulation diluted in water, starting at 24 hours after the first intranasal sensitisation challenge and continuing for 5 consecutive days every week for 5 weeks. For comparative purposes, the same protocol was used to evaluate the effect of a combined administration of Glisodin with salbutamol, in which case the salbutamol was administered for 30 seconds at a solution concentration of 5 mg/ml as a nebulized aerosol 1 hour before each sensitisation challenge.
Respiratory function in the mice was analysed using the flexi Vent™ system available from SciReq and the results illustrated in FIGS. 7 and 8. […] Respiratory function was measured using the flexiVent™ system in response to increasing doses of the broncho-constrictor methacholine. […]
The efficacy of Glisodin was also analysed in combination with salbutamol, a B2-adrenergic receptor agonist having a bronchodilatory and anti-inflammatory activity, as used in the treatment of asthma attacks, the results of which are illustrated in FIG. 8. […] In the charts, CTL or control indicates naïve untreated, untreated asthmatic mice (HDM), asthmatic mice having received salbutamol treatment (Salbutamol), asthmatic mice having received salbutamol and wheat Glisodin (Salbu Wheat) or asthmatic mice having received salbutamol with melon Glisodin (Salbu Melon), all measured by flexi Vent in response to increasing doses of the bronchoconstrictor methacholine. […]

Test [2] relates to cell population from bronchoalveolar lavages (BAL). The test can be described thus: Inflammatory response: BAL cell population by flow cytometry, HDM allergy induced mice. To be noted: asthmatic mice. As for the experimental part:
as §1
At the end of the study protocol on mice, bronchoalveolar lavage (BAL) were taken and the cell population analysed using flow cytometry. […] ANOVA analysis of the data using the Tukey test was carried out and a confidence interval as indicated on the charts established: *=p<0.05, ** p<0.01 and *** p<0.001, in a population of n-6 to 8 mice per group.

Test [3] has as its system Th1, Th2 and Th17 lymphocyte. The test can be described thus: Immune response: lung cells restimulated with whole dust mite extract, flow cytometry. Particulars: lungs of asthmatic mice. As for the experimental part:
as §1
At the end of the treatment protocol, mice lungs were harvested, ground, restimulated with whole dust mite extract and the resulting cell populations analysed using flow cytometry. The results are illustrated in FIG. 10, in which the following cell types were counted: Th1 (CD3+, CD4+, IFNγ+), Th2 (CD3+, CD4+, IL-13+) and Th17 (CD3+, CD4+, IL-17+). […]
Background: Flow cytometry measures light scatter and fluorescence of single cells or particles in a stream.

The subject of test [4] is IgE specific to house dust mites and MCP-1. The test can be described thus: Humoral response: serum HDM-specific IgE by ELISA and MCP-1 production. To be noted: asthmatic mice. The source says: An allergic asthma murine model involving exposure to house dust mites was used. This model comprises a preliminary percutaneous sensitisation challenge phase of Balb/cj mice with a whole house dust mite extract (days 0, 7, 14, and 21), followed by two intranasal stimulations (days 27 and 34) which induced the symptoms of allergy-induced asthma in the test subjects. […] For comparative purposes, the same protocol was used to evaluate the effect of a combined administration of Glisodin with salbutamol, in which case the salbutamol was administered for 30 seconds at a solution concentration of 5 mg/ml as a nebulized aerosol 1 hour before each sensitisation challenge. In allergic asthma, once the antigen has been recognised, clonal selection and proliferation taken place, followed by B lymphocyte differentiation into plasmocytes, the formation of the immune complex between IgE and allergens leads to degranulation of the effecting cells and liberation of chemical mediators such as histamine and MCP-1. In order to evaluate the effect of Glisodin treatment, with respect to initiation of an asthma attack, serum levels of IgE were measured by ELISA for IgE specific to house dust mites and measurements made of the levels of production of MCP-1. […]
For orientation: In an ELISA, binding on a coated surface is turned into a signal by an enzyme label.

Test [5] has as its system IL-5, IL-13, IL-17. The test can be described thus: Cytokine response in supernatant of BAL. Particulars: asthmatic mice. As for the experimental part:
as §1
Cytokines are produced in response to antigens present at the surface of foreign bodies or by molecules considered as foreign by the immune. […] In the present case, Th2 inflammatory pathway cytokines, for example, IL-5 and IL-13, and Th17 cytokines, such as IL-17 were measured in the supernatant of BAL of the various mouse groups, and the results illustrated in FIG. 12, with application of ANOVA analysis of the data using the Tukey test leading to a confidence interval as indicated on the charts established: *=p<0.05, ** p<0.01 and *** p<0.001, in a population n=6 to 8 mice per group.

In test [6] the test system is house dust mite (HDM) allergy induced mice. The test can be described thus: Tissular degradation: histological analysis of lung samples (eosin and hematoxylin), scoring system. Particulars: double blind scoring. The method, then:
as §1, with “For comparative purposes, the same protocol was used to evaluate the effect of a combined administration of Glisodin with salbutamol, in which case the salbutamol was administered for 30 seconds at a solution concentration of 5 mg/ml as a nebulized aerosol 1 hour before each sensitisation challenge.” left out
In situ evaluation of inflammation, bronchoconstriction and asthma severity were carried out via histological analysis, through staining of lung samples from the various mouse groups with eosin and hematoxylin, with a population of 6 mice per group, the images being shown at a scale of 100 μm, as illustrated in FIG. 13. The degree of tissular degradation was assessed in a double blind protocol by two independent assessors using a scoring system. […]

Turning to `CC(C)(C)NCC(O)c1ccc(O)c(CO)c1` (stereo not shown) [salbutamol], in test [1], the compliance entry was “significant effect on the improvement”, the elastance result is on record as “significant effect on the improvement” and the “resistance of the airways” value is “significant effect on the improvement”. Moreover, in test [2] (BAL), the number of eosinophils entry is reported as “reduction” and the number of lymphocytes entry is “reduction”. Further, in test [2] (vs untreated asthmatic mice), the “total number of cells in the BAL and lungs” value was “reduction”. Moreover, the Th1 lymphocyte numbers entry in test [3] is “reduction”. For the same molecule, the “level of MCP-1 produced” value in test [4] was “reduced”. Further, the “level of HDM-specific IgE” value in test [4] (serum) is given as “able to reduce”. Also, in test [5], the IL-5 count result is reported as “effective in reducing”, the IL-17 count result is given as “tendency to decrease” and the “level of IL-13” value is on record as “neither salbutamol nor the various Glisodin formulations tested were able to reduce”. Moreover, the “severity of the asthma (degree of tissular degradation, histological score)” value in test [6] is “reduction”.
